Drawing on PubChem BioAssay (NCI), this text covers TGI and GI50 for ten compounds.

“And” between values parts separate entries of the source, which are not always exact repeats. Equal entries are not always repeated.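 48-hour exposure; five concentrations; linearly interpolated endpoints. Abbreviation: GI50, concentration required for 50% inhibition of growth. The concentration for full growth arrest is given as TGI.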

Test systems include HCT-15 colon; NCI/ADR-RES ovarian; NCI-H460 lung; SF-539 CNS; OVCAR-5 ovarian; MDA-MB-231 breast; OVCAR-8 ovarian; COLO 205 colon; HOP-92 NSCLC; HL-60(TB) leukemia.
Holding throughout (test): NCI anticancer screen, dose series, 48 h

In the case of `CC(C)[C@H](O)C(=O)N[C@H]1Cc2ccc3c(c2)[C@]24C5=C(N=C(O5)[C@H](C(C)C)NC1=O)c1nc(Cl)c(o1)-c1c(Cl)[nH]c5cccc(c15)-c1cccc2c1N[C@H]4O3`, the TGI is > 10 µM in the assay with HCT-15 colon; 3.22 µM with NCI/ADR-RES ovarian; 1.21 µM in the assay on NCI-H460 lung; 0.083 µM in the assay with SF-539 CNS; > 10 µM in the assay on OVCAR-5 ovarian. For the same compound, the GI50 in the assay with NCI-H460 lung was < 0.001 µM; in the assay on OVCAR-5 ovarian, 4.26 µM; with MDA-MB-231 breast it was 0.00178 µM.

As for `O=C1C(Nc2cccc(O)c2)=C(Sc2ccc(Cl)cc2)C(=O)N1Cc1ccccc1`, the GI50 in the assay on HCT-15 colon was 10.2 µM; in the assay with NCI/ADR-RES ovarian, 7.21 µM; in the assay with NCI-H460 lung, 5.61 µM; in the assay with OVCAR-8 ovarian, 6.03 µM; in the assay with COLO 205 colon, 28.2 µM; in the assay on OVCAR-5 ovarian, 21.1 µM. The GI50 in the assay with HOP-92 NSCLC was 4.73 µM. Further, the TGI in the assay with HCT-15 colon is 33.9 µM; with NCI/ADR-RES ovarian it was 36.1 µM; with NCI-H460 lung, > 100 µM; with OVCAR-8 ovarian, 34.8 µM; in the assay with COLO 205 colon, > 100 µM; in the assay on OVCAR-5 ovarian it was 55 µM. In the assay with HOP-92 NSCLC, this compound yielded a TGI of 30.7 µM.

As for `NC(N)=N/N=C(/c1ccccc1)c1ccc(O)cc1O`, the TGI was > 100 µM with HCT-15 colon; > 100 µM in the assay with NCI/ADR-RES ovarian; 88.4 µM with NCI-H460 lung; 59.2 µM with OVCAR-8 ovarian; 39 µM in the assay on SF-539 CNS; 33.2 µM with COLO 205 colon. For the same compound, the TGI in the assay with OVCAR-5 ovarian, with MDA-MB-231 breast and with HOP-92 NSCLC was > 100 µM throughout.

On to `CCCCCC/C=C\CCCCCCCCCc1c(O)c(OC)cc(O)c1CN(C)C`, for which the TGI came out at 10.8 µM with HCT-15 colon; 37 µM in the assay on NCI/ADR-RES ovarian; 5.37 µM with HL-60(TB) leukemia; 15.2 µM in the assay on NCI-H460 lung; 23.8 µM in the assay on OVCAR-8 ovarian; 22.2 µM in the assay with SF-539 CNS. In addition, the TGI with COLO 205 colon is 4.43 µM; in the assay with OVCAR-5 ovarian it was 29.6 µM; in the assay on MDA-MB-231 breast, 31.6 µM.

Take `CO[C@@]12[C@H](COC(N)=O)C3=C(C(=O)C(C)=C(N)C3=O)N1C[C@@H]1N[C@@H]12`: the GI50 in the assay on HCT-15 colon is 1.92 µM and 1.67 µM; in the assay with NCI/ADR-RES ovarian, 3.83 µM; in the assay on HL-60(TB) leukemia, 0.126 µM; in the assay with OVCAR-8 ovarian it was 1.52 µM and 0.925 µM; with COLO 205 colon, 1.7 µM; with OVCAR-5 ovarian, 2.69 µM and 1.65 µM. Further, the GI50 is 17.5 µM and 9.42 µM in the assay with MDA-MB-231 breast; 1.81 µM and 1.75 µM in the assay on HOP-92 NSCLC. Moreover, the TGI was 10.4 µM and 16.4 µM and 43.4 µM in the assay on HCT-15 colon; 20 µM and 21.4 µM and > 100 µM in the assay on NCI/ADR-RES ovarian; 1.03 µM and 1.48 µM with NCI-H460 lung; 5.21 µM and 8.43 µM and 7.05 µM in the assay on COLO 205 colon; 9.29 µM and 10.5 µM and 14 µM in the assay on OVCAR-5 ovarian; 16.8 µM and 25 µM and 56.3 µM in the assay on MDA-MB-231 breast. Further, the TGI in the assay with HOP-92 NSCLC was 12.4 µM and 5.53 µM and 7.2 µM.

Consider `Clc1ccc2c(NCCN3CCN(c4ccnc(N5CCCC5)n4)CC3)ccnc2c1`, for which the GI50 in the assay with HCT-15 colon is 2.1 µM; in the assay on NCI/ADR-RES ovarian, 4.12 µM; in the assay with HL-60(TB) leukemia, 2.37 µM; in the assay with NCI-H460 lung it was 3.25 µM; with OVCAR-8 ovarian it was 4.39 µM; with SF-539 CNS, 1.73 µM. Moreover, the GI50 was 1.63 µM in the assay on COLO 205 colon, 5.1 µM in the assay on OVCAR-5 ovarian and 2.06 µM in the assay with MDA-MB-231 breast. Further, the TGI in the assay with HCT-15 colon stood at 7.57 µM; with NCI/ADR-RES ovarian, 18.1 µM; in the assay on HL-60(TB) leukemia it was 6.25 µM; with NCI-H460 lung, 10.1 µM; in the assay on OVCAR-8 ovarian, 18.5 µM; in the assay on SF-539 CNS it was 3.67 µM. Also, the TGI with COLO 205 colon was 3.59 µM; with OVCAR-5 ovarian, 21.4 µM; in the assay on MDA-MB-231 breast it was 5.89 µM.

Consider `Cc1ccc(C(=O)Nc2ccccc2C(=O)N/N=C(\c2ccccc2)c2ccccn2)cc1`, for which the GI50 was 0.06 µM with HCT-15 colon; 0.2 µM in the assay with NCI/ADR-RES ovarian; 0.211 µM in the assay on NCI-H460 lung; 0.377 µM with OVCAR-8 ovarian; 0.309 µM in the assay on SF-539 CNS; 0.334 µM in the assay on COLO 205 colon. The GI50 in the assay on OVCAR-5 ovarian was 0.607 µM; in the assay with MDA-MB-231 breast, 0.517 µM; in the assay with HOP-92 NSCLC, 6.27 µM. Further, the TGI in the assay on HCT-15 colon is > 100 µM; in the assay with NCI/ADR-RES ovarian, > 100 µM; in the assay on NCI-H460 lung it was > 100 µM; in the assay on OVCAR-8 ovarian it was > 100 µM; in the assay on SF-539 CNS it was 6.95 µM; in the assay on COLO 205 colon, > 100 µM. Also, the TGI with OVCAR-5 ovarian, in the assay with MDA-MB-231 breast and in the assay on HOP-92 NSCLC was > 100 µM throughout.

With `C=C(C)C1CCC2(CO)C(O)CC3(C)C(CCC4C5(C)CCC(O)C(C)(C)C5CCC43C)C12` (stereo unspecified), the TGI was 88 µM in the assay with HCT-15 colon; 81.5 µM with NCI/ADR-RES ovarian; > 100 µM in the assay on HL-60(TB) leukemia; 64.3 µM with NCI-H460 lung; 20.7 µM in the assay with OVCAR-8 ovarian; 30 µM in the assay on SF-539 CNS. Besides, the TGI in the assay on OVCAR-5 ovarian is > 100 µM; with MDA-MB-231 breast it was 57.2 µM; in the assay with HOP-92 NSCLC it was 25.2 µM.

Take `CC1(C)CC(O)CCCCCCOc2c(CN)cccc2NC(=O)c2nc(cnc2N)-c2ccc(cc2)S1(=O)=O` (stereo unspecified): the GI50 was 0.263 µM in the assay on HCT-15 colon; 2.83 µM with NCI/ADR-RES ovarian; < 0.0192 µM with NCI-H460 lung; 2.14 µM in the assay on OVCAR-8 ovarian; 0.0363 µM in the assay on SF-539 CNS; 0.394 µM in the assay with COLO 205 colon. In addition, the figures for the GI50 in the assay with OVCAR-5 ovarian, in the assay with MDA-MB-231 breast and with HOP-92 NSCLC were 2.81 µM, 1.85 µM and 2.72 µM, respectively. The TGI in the assay with HCT-15 colon stood at 2.56 µM; with NCI/ADR-RES ovarian it was 13.4 µM; in the assay on NCI-H460 lung, 2.31 µM; in the assay on OVCAR-8 ovarian, 5.87 µM; in the assay on SF-539 CNS, 1.73 µM; in the assay on COLO 205 colon, 2.08 µM. The values for the TGI in the assay on OVCAR-5 ovarian, in the assay on MDA-MB-231 breast and in the assay on HOP-92 NSCLC were 6.34 µM, 4.48 µM and 5.82 µM, respectively.

Consider `C=C(C)C(=O)N1c2ccc(OC)cc2CC1C(=O)OCC` (stereo unspecified), for which the TGI in the assay on HCT-15 colon, with NCI/ADR-RES ovarian, in the assay on NCI-H460 lung, in the assay on OVCAR-8 ovarian, in the assay on SF-539 CNS and in the assay with COLO 205 colon was > 100 µM each time. The TGI in the assay with OVCAR-5 ovarian and in the assay with MDA-MB-231 breast was > 100 µM in each case.
